Results from patent publication US20240368214A1, “POSITIVE NMDA-MODULATING COMPOUNDS AND METHODS OF USE THEREOF” (SAGE THERAPEUTICS, INC., priority 2021, published 2024).

Target: T1, recombinant human GluN1/GluN2A receptor (Homo sapiens, UniProt Q05586+Q12879)
T1 construct: expressed in transfected cells; host or cells: HEK293, tetracycline-inducible expression
Test: Whole-cell patch clamp of mammalian cells (Syncropatch 384i), NMDA modulation
Assay type: cell-based
Conditions: Table D-2, HEK293 cells, human GluN1/GluN2A, glutamate 1 μM / glycine 100 μM, -80 mV, peak amplitude increase; for EC50: read-out: EC50
Summary of the method: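 Modulation read as fold rise in peak current, (Icomp/Icontrol)−1, from 8 concentrations with ≥2 wells each, four-parameter fit. Compound pre-incubated 120 s then co-applied with 1 μM glutamate plus 100 μM glycine; tetracycline-inducible HEK293 GluN1/GluN2A cells clamped at −80 mV.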

T1 sequence (Q12879 23-1464, other chains not shown): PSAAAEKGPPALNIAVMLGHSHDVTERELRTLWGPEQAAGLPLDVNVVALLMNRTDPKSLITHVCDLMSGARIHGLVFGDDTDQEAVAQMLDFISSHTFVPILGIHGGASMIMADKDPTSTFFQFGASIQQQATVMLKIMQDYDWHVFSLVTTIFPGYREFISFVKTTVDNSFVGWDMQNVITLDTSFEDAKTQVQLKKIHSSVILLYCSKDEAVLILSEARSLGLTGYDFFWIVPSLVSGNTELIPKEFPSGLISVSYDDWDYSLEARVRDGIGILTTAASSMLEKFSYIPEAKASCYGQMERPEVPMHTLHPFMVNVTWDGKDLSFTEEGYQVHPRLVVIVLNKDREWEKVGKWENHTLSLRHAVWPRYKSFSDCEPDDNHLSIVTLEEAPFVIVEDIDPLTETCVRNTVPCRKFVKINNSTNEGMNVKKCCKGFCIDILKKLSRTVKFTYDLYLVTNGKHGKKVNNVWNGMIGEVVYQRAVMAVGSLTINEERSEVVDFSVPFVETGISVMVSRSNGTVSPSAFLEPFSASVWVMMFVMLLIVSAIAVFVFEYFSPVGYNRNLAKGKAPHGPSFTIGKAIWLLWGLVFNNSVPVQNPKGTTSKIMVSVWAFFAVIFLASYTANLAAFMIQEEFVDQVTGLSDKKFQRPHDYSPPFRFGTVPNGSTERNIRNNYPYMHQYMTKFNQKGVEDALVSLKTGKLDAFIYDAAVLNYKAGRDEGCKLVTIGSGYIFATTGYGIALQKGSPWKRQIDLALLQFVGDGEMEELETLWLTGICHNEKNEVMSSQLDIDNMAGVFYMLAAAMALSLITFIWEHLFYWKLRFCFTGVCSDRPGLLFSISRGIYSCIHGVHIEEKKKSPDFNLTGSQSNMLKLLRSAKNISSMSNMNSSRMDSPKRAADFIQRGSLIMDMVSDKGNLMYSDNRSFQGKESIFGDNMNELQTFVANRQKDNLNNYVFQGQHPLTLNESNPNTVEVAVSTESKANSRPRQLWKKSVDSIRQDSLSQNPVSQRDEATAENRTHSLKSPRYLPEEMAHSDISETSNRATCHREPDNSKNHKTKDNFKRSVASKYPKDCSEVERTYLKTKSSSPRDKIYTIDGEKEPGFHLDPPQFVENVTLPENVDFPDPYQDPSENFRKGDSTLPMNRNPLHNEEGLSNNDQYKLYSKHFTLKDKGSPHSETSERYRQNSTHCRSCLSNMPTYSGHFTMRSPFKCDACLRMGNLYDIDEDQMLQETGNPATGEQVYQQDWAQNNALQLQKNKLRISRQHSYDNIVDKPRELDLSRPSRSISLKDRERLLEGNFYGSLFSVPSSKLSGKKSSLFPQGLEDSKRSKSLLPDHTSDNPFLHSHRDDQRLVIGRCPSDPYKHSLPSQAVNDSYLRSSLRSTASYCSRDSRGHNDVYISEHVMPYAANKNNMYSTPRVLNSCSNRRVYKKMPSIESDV

Emax [%]	EC50 [nM]	SMILES
< 100	100 to 500	CC[C@]1(O)CCC[C@@]2(C)[C@@H](CC[C@@H]3[C@@H]2CC[C@]2(C)[C@@H]([C@H](C)CC[C@@](C)(O)C(F)(F)F)CC[C@@H]32)C1 [Compound D-5, (1R,3aS,3bR,5aS,7S,10aS,10bS,12aR)-7-ethyl-10a,12a-dimethyl-1-((2R,5R)-6,6,6-trifluoro-5-hydroxy-5-methylhexan-2-yl)octadecahydrocyclohepta[a]cyclopenta[f]naphthalen-7-ol]
100 to 200	1 to 100	CC[C@@]1(O)CCC[C@@]2(C)[C@@H](CC[C@@H]3[C@@H]2CC[C@]2(C)[C@@H]([C@H](C)CC[C@@](C)(O)C(F)(F)F)CC[C@@H]32)C1 [Compound D-6, (1R,3aS,3bR,5aS,7R,10aS,10bS,12aR)-7-ethyl-10a,12a-dimethyl-1-((2R,5R)-6,6,6-trifluoro-5-hydroxy-5-methylhexan-2-yl)octadecahydrocyclohepta[a]cyclopenta[f]naphthalen-7-ol]
100 to 200	1 to 100	CC[C@]1(O)CCC[C@@]2(C)[C@@H](CC[C@@H]3[C@@H]2CC[C@]2(C)[C@@H]([C@H](C)CC[C@](C)(O)C(F)(F)F)CC[C@@H]32)C1 [Compound D-7, (1R,3aS,3bR,5aS,7S,10aS,10bS,12aR)-7-ethyl-10a,12a-dimethyl-1-((2R,5S)-6,6,6-trifluoro-5-hydroxy-5-methylhexan-2-yl)octadecahydrocyclohepta[a]cyclopenta[f]naphthalen-7-ol]
100 to 200	100 to 500	CC[C@]1(O)CCC[C@@]2(C)C(=CC[C@H]3[C@@H]4CC[C@H]([C@H](C)CCC(C)(C)O)[C@@]4(C)CC[C@@H]32)C1 [Compound D-9, (1R,3aS,3bS,7S,10aR,10bS,12aR)-7-ethyl-1-((R)-5-hydroxy-5-methylhexan-2-yl)-10a,12a-dimethyl-1,2,3,3a,3b,4,6,7,8,9,10,10a,10b,11,12,12a-hexadecahydrocyclohepta[a]cyclopenta[f]naphthalen-7-ol]
	> 1000	C[C@H](CC[C@](C)(O)C(F)(F)F)[C@H]1CC[C@H]2[C@@H]3CC=C4C[C@](C)(O)CCC[C@]4(C)[C@H]3CC[C@]12C [Compound D-14, (1R,3aS,3bS,7R,10aR,10bS,12aR)-7,10a,12a-trimethyl-1-((2R,5S)-6,6,6-trifluoro-5-hydroxy-5-methylhexan-2-yl)-1,2,3,3a,3b,4,6,7,8,9,10,10a, 10b, 11,12,12a-hexadecahydrocyclohepta[a]cyclopenta[f]naphthalen-7-ol]
< 100	100 to 500	C[C@H](CC[C@](C)(O)C(F)(F)F)[C@H]1CC[C@H]2[C@@H]3CC=C4C[C@@](C)(O)CCC[C@]4(C)[C@H]3CC[C@]12C [Compound D-15, (1R,3aS,3bS,7S,10aR,10bS,12aR)-7,10a,12a-trimethyl-1-((2R,5S)-6,6,6-trifluoro-5-hydroxy-5-methylhexan-2-yl)-1,2,3,3a,3b,4,6,7,8,9,10,10a,10b,11,12,12a-hexadecahydrocyclohepta[a]cyclopenta[f]naphthalen-7-ol]
< 100	> 1000	CC[C@@]1(O)CCC[C@@]2(C)C(=CC[C@H]3[C@@H]4CC[C@H]([C@H](C)CC[C@](C)(O)C(F)(F)F)[C@@]4(C)CC[C@@H]32)C1 [Compound D-16, (1R,3aS,3bS,7R,10aR,10bS,12aR)-7-ethyl-10a,12a-dimethyl-1-((2R,5S)-6,6,6-trifluoro-5-hydroxy-5-methylhexan-2-yl)-1,2,3,3a,3b,4,6,7,8,9,10,10a,10b,11,12,12a-hexadecahydrocyclohepta[a]cyclopenta[f]naphthalen-7-ol]
